Values after ≈ are worked out from the molar mass of the structure shown.

Data set [1] deals with Klebsiella pneumonia ATCC 43816. Put plainly: Minimal Inhibitory Concentration (MIC) assay, Klebsiella pneumonia ATCC 43816. It is filed as cell-based. The conditions noted are these: Klebsiella pneumoniae, ATCC43816, 20 h, read-out: MIC Klebsiella pneumoniae ATCC43816. A digest of the protocol: (§1)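 Broth microdilution in cation-adjusted Mueller Hinton broth with 2-fold serial compound dilutions, inoculum 5×10^5 CFU/mL. Plates incubated 20 h at 35 °C in ambient air. MIC (μg/mL) is the lowest concentration preventing visible growth; K. pneumoniae 43816 is a rifampin-resistant mutant.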

Another data set deals with LPS synthesis pathway. The conditions noted are these: in words; Bioorganic Chemistry 102 (2020) 104055; cited from earlier work.
Data set [2] has as its system Escherichia coli ATCC 25922. Kind of data set: Minimal Inhibitory Concentration (MIC) assay, Escherichia coli ATCC 25922. Type of data set: cell-based. As to conditions: ATCC25922, 20 h, read-out: MIC Escherichia coli ATCC25922. Summed up: as §1
Data set [3] deals with efflux-deficient E. coli strains. As to conditions: in words; Bioorganic Chemistry 102 (2020) 104055; cited from earlier work.
The nature of data set [4]: Human Microsome Stability Assay. It is filed as in vitro ADME. The conditions noted are these: 1 μM compound, 0.5 mg/mL liver microsomal protein, 1 mM NADPH, pH 7.4, 37° C., 0-30 minutes; for CLint scaled at 1 µM: human, liver microsomes, read-out: Clearance of Human microsome. As to the method:
The human microsomal stability assay is used for early assessment of metabolic stability of compounds of present invention in human liver microsomes. Human liver microsomes (Cat. NO.: 452117, Corning, USA) were pre-incubated with test compound for 10 minutes at 37° C. in 100 mM potassium phosphate buffer, pH 7.4. The reactions were initiated by adding NADPH regenerating system. The final incubation mixtures contained 1 μM compound, 0.5 mg/mL liver microsomal protein, 1 mM MgCl2 and 1 mM NADPH in 100 mM potassium phosphate buffer, pH 7.4. After incubation times of 0, 3, 6, 9, 15 and 30 minutes at 37° C., 300 μL of cold acetonitrile (including internal standard) was added to 100 μL incubation mixture to terminate the reaction. Following precipitation and centrifugation, the amount of compound remaining in the samples were determined by LC-MS/MS. Controls of no NADPH regenerating system at zero and 30 minutes were also prepared and analyzed.
In general terms: Microsomes from liver hold many membrane-bound enzymes, among them those of drug oxidation.

One may read the MIC as the least concentration at which growth counts as inhibited. On to `CC(=O)N1CCc2cc(S(=O)(=O)N3CCN(c4cc(Cl)cc(C(F)(F)F)c4)CC3)ccc21` [Compound F-1, reference compound], for which the MIC in data set [1] and in data set [2] was above 24 µg/mL in each case. The “LPS synthesis pathway inhibition activity” value with LPS synthesis pathway is “having LPS synthesis pathway inhibition activity”. Also, the “antibiotic activity against efflux-deficient E. coli strains” value in data set [3] was “displaying antibiotic activity against efflux-deficient E. coli strains”. Further, the CLint scaled at 1 µM in data set [4] was 14 mL/min/kg.
Take `NCCCNC(=O)[C@H]1CC[C@H](C(F)(F)c2cc(Cl)nc(N3CCN(S(=O)(=O)c4ccc5c(c4)OCC4C(N)CC(=O)N54)CC3)c2)CC1` (some centres unmarked) [Example 045, 4-[[2-[4-[(3-Amino-1-oxo-2,3,3a,4-tetrahydropyrrolo[2,1-c][1,4]benzoxazin-7-yl)sulfonyl]piperazin-1-yl]-6-chloro-4-pyridyl]-difluoro-methyl]-N-(3-aminopropyl)cyclohexanecarboxamide]: the MIC in data set [1] and in data set [2] was 0.63 µg/mL (≈ 0.905 µM) in each case. For the same molecule, the CLint scaled at 1 µM in data set [4] turned out to be 8.9 mL/min/kg.
Take `NCCCNC(=O)[C@H]1CC[C@H](C(F)(F)c2cc(Cl)nc(N3CCN(S(=O)(=O)c4ccc5c(c4)OC[C@@H]4[C@H](CO)OC(=O)N54)CC3)c2)CC1` [Example 046, 4-[[2-[4-[[(3R,3aR)-3-(hydroxymethyl)-1-oxo-3a,4-dihydro-3H-oxazolo[4,3-c][1,4]benzoxazin-7-yl]sulfonyl]piperazin-1-yl]-6-chloro-4-pyridyl]-difluoro-methyl]-N-(3-aminopropyl)cyclohexanecarboxamide]: the MIC in data set [1] and in data set [2] was 0.32 µg/mL (≈ 0.449 µM) throughout. Besides, the “Clearance of Human microsome” value in data set [4] came to 6.2 mL/min/kg.
With `NCCCN(CCCN)C(=O)[C@H]1CC[C@H](C(F)(F)c2cc(Cl)nc(N3CCN(S(=O)(=O)c4ccc5c(c4)OC[C@H]4[C@H](CO)OC(=O)N54)CC3)c2)CC1` [Example 048, 4-[[2-[4-[[(3R,3aS)-3-(hydroxymethyl)-1-oxo-3a,4-dihydro-3H-oxazolo[4,3-c][1,4]benzoxazin-7-yl]sulfonyl]piperazin-1-yl]-6-chloro-4-pyridyl]-difluoro-methyl]-N,N-bis(3-aminopropyl)cyclohexanecarboxamide], the MIC in data set [1] and in data set [2] was 0.64 µg/mL (≈ 0.831 µM) in each case. Besides, the CLint scaled at 1 µM in data set [4] stood at 12.9 mL/min/kg.
Regarding `NCCCNC(=O)[C@H]1CC[C@H](C(F)(F)c2cc(Cl)nc(N3CCN(S(=O)(=O)c4ccc5c(c4)OC[C@H]4[C@H](CO)OC(=O)N54)CC3)c2)CC1` [Example 049, 4-[[2-[4-[[(3R,3aS)-3-(hydroxymethyl)-1-oxo-3a,4-dihydro-3H-oxazolo[4,3-c][1,4]benzoxazin-7-yl]sulfonyl]piperazin-1-yl]-6-chloro-4-pyridyl]-difluoro-methyl]-N-(3-aminopropyl)cyclohexanecarboxamide], the MIC was 0.29 µg/mL (≈ 0.407 µM) in data set [1] and 0.3 µg/mL (≈ 0.421 µM) in data set [2]. The “Clearance of Human microsome” value in data set [4] is reported as 6.2 mL/min/kg.
With `NCCC(=O)NC1CCC(Oc2cc(Cl)nc(N3CCN(S(=O)(=O)c4ccc5c(c4)OC[C@H]4[C@H](CO)OC(=O)N54)CC3)c2)CC1` (stereo partly drawn) [Example 051, N-[4-[[2-[4-[[(3R,3aS)-3-(hydroxymethyl)-1-oxo-3a,4-dihydro-3H-oxazolo[4,3-c][1,4]benzoxazin-7-yl]sulfonyl]piperazin-1-yl]-6-chloro-4-pyridyl]oxy]cyclohexyl]-3-amino-propanamide], the MIC in data set [1] was 3.65 µg/mL (≈ 5.49 µM); in data set [2], 3.7 µg/mL (≈ 5.56 µM). Also, in data set [4], the CLint scaled at 1 µM was determined as 13.1 mL/min/kg.
The like results for `NCCN(CCN)CC(=O)N1CCC(C(F)(F)c2cc(Cl)nc(N3CCN(S(=O)(=O)c4ccc5c(c4)OC[C@@H]4[C@H](CO)OC(=O)N54)CC3)c2)CC1` [Example 052, (3R,3aR)-7-[4-[4-[[1-[2-[bis(2-aminoethyl)amino]acetyl]-4-piperidyl]-difluoro-methyl]-6-chloro-2-pyridyl]piperazin-1-yl]sulfonyl-3-(hydroxymethyl)-3a,4-dihydro-3H-oxazolo[4,3-c][1,4]benzoxazin-1-one] were, in that order, 1.36 µg/mL (≈ 1.8 µM), 0.68 µg/mL (≈ 0.898 µM) and 6.4 mL/min/kg.
Taken in the same sequence, the figures for `NCC(=O)N1CCC(C(F)(F)c2cc(Cl)nc(N3CCN(S(=O)(=O)c4ccc5c(c4)OC[C@@H]4[C@H](CO)OC(=O)N54)CC3)c2)CC1` [Example 053, (3R,3aR)-7-[4-[4-[[1-(2-aminoacetyl)-4-piperidyl]-difluoro-methyl]-6-chloro-2-pyridyl]piperazin-1-yl]sulfonyl-3-(hydroxymethyl)-3a,4-dihydro-3H-oxazolo[4,3-c][1,4]benzoxazin-1-one] were 0.61 µg/mL (≈ 0.909 µM), 0.61 µg/mL (≈ 0.909 µM) and 12.2 mL/min/kg.
The like results for `NCCC(=O)N1CCC(C(F)(F)c2cc(Cl)nc(N3CCN(S(=O)(=O)c4ccc5c(c4)OC[C@@H]4[C@H](CO)OC(=O)N54)CC3)c2)CC1` [Example 054, (3R,3aR)-7-[4-[4-[[1-(3-aminopropanoyl)-4-piperidyl]-difluoro-methyl]-6-chloro-2-pyridyl]piperazin-1-yl]sulfonyl-3-(hydroxymethyl)-3a,4-dihydro-3H-oxazolo[4,3-c][1,4]benzoxazin-1-one] were, in that order, 0.62 µg/mL (≈ 0.905 µM), 0.62 µg/mL (≈ 0.905 µM) and 6.4 mL/min/kg.
`NCCN1CCC(C(F)(F)c2cc(Cl)nc(N3CCN(S(=O)(=O)c4ccc5c(c4)OC[C@@H]4[C@H](CO)OC(=O)N54)CC3)c2)CC1` [Example 055, (3R,3aR)-7-[4-[4-[[1-(2-aminoethyl)-4-piperidyl]-difluoro-methyl]-6-chloro-2-pyridyl]piperazin-1-yl]sulfonyl-3-(hydroxymethyl)-3a,4-dihydro-3H-oxazolo[4,3-c][1,4]benzoxazin-1-one]: the minimal inhibitory concentration (MIC) in data set [1] and in data set [2] was 0.3 µg/mL (≈ 0.457 µM) each time. Further, the CLint scaled at 1 µM in data set [4] amounted to 7.8 mL/min/kg.
Turning to `NCC(=O)NCC(=O)N1CCC(C(F)(F)c2cc(Cl)nc(N3CCN(S(=O)(=O)c4ccc5c(c4)OC[C@@H]4[C@H](CO)OC(=O)N54)CC3)c2)CC1` [Example 057, N-[2-[4-[[2-[4-[[(3R,3aR)-3-(hydroxymethyl)-1-oxo-3a,4-dihydro-3H-oxazolo[4,3-c][1,4]benzoxazin-7-yl]sulfonyl]piperazin-1-yl]-6-chloro-4-pyridyl]-difluoro-methyl]-1-piperidyl]-2-oxo-ethyl]-2-amino-acetamide], the MIC in data set [1] and in data set [2] was 0.66 µg/mL (≈ 0.906 µM) throughout. Also, in data set [4], the CLint scaled at 1 µM was 11.3 mL/min/kg.
In the case of `C[N@@+]1(CC(N)=O)CCC[C@H]1C(=O)N[C@H]1CC[C@H](C(F)(F)c2cc(Cl)nc(N3CCN(S(=O)(=O)c4ccc5c(c4)OC[C@@H]4[C@H](CN)OC(=O)N54)CC3)c2)CC1` [Example 060, (1S,2S)—N-[4-[[2-[4-[[(3S,3aR)-3-(aminomethyl)-1-oxo-3a,4-dihydro-3H-oxazolo[4,3-c][1,4]benzoxazin-7-yl]sulfonyl]piperazin-1-yl]-6-chloro-4-pyridyl]-difluoro-methyl]cyclohexyl]-1-(2-amino-2-oxo-ethyl)-1-methyl-pyrrolidin-1-ium-2-carboxamide; chloride], the MIC in data set [1] and in data set [2] was 0.51 µg/mL each time. For the same molecule, the “Clearance of Human microsome” value in data set [4] is 6.2 mL/min/kg.
In the case of `C[N@+]1(CC(N)=O)CCC[C@H]1C(=O)N[C@H]1CC[C@H](C(F)(F)c2cc(Cl)nc(N3CCN(S(=O)(=O)c4ccc5c(c4)OC[C@@H]4[C@H](CN)OC(=O)N54)CC3)c2)CC1` [Example 061, (1R,2S)—N-[4-[[2-[4-[[(3S,3aR)-3-(aminomethyl)-1-oxo-3a,4-dihydro-3H-oxazolo[4,3-c][1,4]benzoxazin-7-yl]sulfonyl]piperazin-1-yl]-6-chloro-4-pyridyl]-difluoro-methyl]cyclohexyl]-1-(2-amino-2-oxo-ethyl)-1-methyl-pyrrolidin-1-ium-2-carboxamide;chloride], the minimum inhibitory concentration (MIC) in data set [1] came to 0.34 µg/mL; in data set [2], 0.68 µg/mL. Besides, in data set [4], the “Clearance of Human microsome” value came to 6.2 mL/min/kg.
As for `NC(=O)C[N+]1(CCNC(=O)[C@H]2CC[C@H](C(F)(F)c3cc(Cl)nc(N4CCN(S(=O)(=O)c5ccc6c(c5)OC[C@@H]5[C@H](CO)OC(=O)N65)CC4)c3)CC2)CCCC1.[Cl-]` [Example 063, 4-[[2-[4-[[(3R,3aR)-3-(hydroxymethyl)-1-oxo-3a,4-dihydro-3H-oxazolo[4,3-c][1,4]benzoxazin-7-yl]sulfonyl]piperazin-1-yl]-6-chloro-4-pyridyl]-difluoro-methyl]-N-[2-[1-(2-amino-2-oxo-ethyl)pyrrolidin-1-ium-1-yl]ethyl]cyclohexanecarboxamide; chloride], the values for the minimal inhibitory concentration (MIC) in data set [1] and in data set [2] were 2.01 µg/mL and 2 µg/mL, respectively. Also, in data set [4], the CLint scaled at 1 µM amounted to 10.2 mL/min/kg.

The values are drawn from patent US20260308172A1, “TRICYCLIC COMPOUNDS FOR TREATMENT OF BACTERIAL INFECTIONS” (priority 2023, published 2026).
